# Peptide text beside a SMILES is read from it.
# Assays:
# C. albicans NCTC 3179 = type: cell-based, Candida albicans; settings: NCTC 3179, 24 h
# Procedure: MIC values were determined following the CLSI-approved Reference Method for Broth Dilution Antifungal Susceptibility Testing of Yeasts (approved standard M27-A3) ([32]) in RPMI 1640 medium (Sigma, Dorset, United Kingdom) at 35°C. For all filamentous fungi, the CLSI standard M38-A2 ([33]) was followed, in RPMI 1640 medium at 35°C. Cell growth of all fungi was followed by measuring the optical density at 530 nm (OD530) using the Powerwave XS plate reader (Biotek, Swindon, United Kingdom).
# C. albicans SC5314 = type: cell-based, Candida albicans; settings: 30 passages in 0.25× MIC of the same antifungal, MIC at passage 0 normalized to 1, average of three independent replicates
# Procedure: (§1) Cell growth of all fungi was followed by measuring the optical density at 530 nm (OD530) using the Powerwave XS plate reader (Biotek, Swindon, United Kingdom).
# (§2) The fungal inoculum was prepared according to the CLSI standard M27-A3 ([32]). For the analysis, 100 μl of the antifungal stock was added to a 96-well polystyrene plate in triplicate. […] The passaging was repeated 30 times. Every five passages, a full MIC analysis was done, as specified above.
# A. fumigatus conidia = test: Time-kill assay in culture media; type: cell-based, Aspergillus fumigatus; settings: A. fumigatus conidia (n = 2), inoculum 1 × 10^5 cells/ml, antibiotic medium 3
# Procedure: (§3) For Candida spp., the cells were grown for at least 18 to 24 h at 30°C, until visible growth was observed. The cells were then centrifuged and resuspended in sterile distilled H2O and diluted to the 0.5 McFarland standard density using 2× RPMI 1640 medium. The tested antifungals were prepared at twice the required concentration. Then, 1 ml of the inoculum was added to 1 ml of the antifungal solution and incubated at 30°C. Every hour over the course of 8 h, 20 μl of the culture was removed and 10-fold serial dilutions were prepared (from 1 × 10^−1 to 1 × 10^−7). Then, 50 μl of each dilution was plated on SAB agar (Sigma) in triplicate. The plates were incubated at 30°C until colonies were observed on the control plates with vehicle-treated fungi. The colonies were counted, and the percentage killed was determined based on the reduction in the number of CFU/ml in the treated samples compared with the vehicle-treated, untreated controls.
# For A. fumigatus, a subculture was grown on a SAB agar (Sigma) slant for 72 h at 35°C until sporulation. A. fumigatus cells were harvested from the slant into 0.15 M NaCl (Fisher Scientific UK, Ltd.), and conidia were isolated by passing through an EASYStrainer cell sieve (70-μm pore; Greiner Bio-One, Gloucester, United Kingdom) The conidial suspension was diluted to 1 × 10^5 CFU/ml in 2× antibiotic medium 3 (Oxoid). For germling analysis, the conidial suspension was incubated for 8 h at 35°C prior to analysis; for conidial experiments, it was used immediately. The experiment was performed as described for Candida spp.
# C. auris DSMZ1092 = type: cell-based, Candida auris; settings: 30 passages in 0.25× MIC of the same antifungal, passage 0 = 1, average of three independent replicates
# Procedure: as §1, §2
# C. glabrata AM2007/0125 = type: cell-based, Candida glabrata; settings: 30 passages in 0.25× MIC of the same antifungal, passage 0 = 1, average of three independent replicates
# Procedure: as §1, §2
# [1] = system: C. tropicalis AM2005/0568; type: cell-based, Candida tropicalis; settings: 30 passages in 0.25× MIC of the same antifungal, passage 0 = 1, average of three independent replicates
# Procedure: as §1, §2
# C. auris = test: Time-kill assay in culture media; type: cell-based, Candida auris; settings: C. auris (n = 1), inoculum 1 × 10^6 to 5 × 10^6 cells/ml
# Procedure: as §3, with “The plates were incubated at 30°C until colonies were observed on the control plates with vehicle-treated fungi.” left out
# C. albicans AM2003-0182 [2] = test: MIC (CLSI) of the agents used for TEM; type: cell-based, Candida albicans; settings: standard CLSI methods
# C. albicans AM2003-0182 [3] = test: Transmission electron microscopy of planktonic cells; type: cell-based, Candida albicans; settings: 1× MIC, 30 min exposure
# Procedure: For the TEM analysis, an overnight culture of C. albicans AM2003-0182 was diluted to a density of 1 × 10^8 cells/ml in 2× RPMI 1640 medium, and the mixture was incubated at 35°C for 1 h. The cells were then washed three times in sterile water and once in 0.01 M sodium phosphate buffer. […] The cells were then fixed in 2.5% (vol/vol) glutaraldehyde and stored at 4°C before analysis. For TEM analysis, the cells were dehydrated in an ethanol and acetone series before being embedded in […] resin, stained with uranyl acetate/lead citrate stains to improve contrast, sectioned to a 90-nm thickness, and mounted onto copper grids for TEM analysis. TEM micrographs were acquired using a JEM-1400 Plus JEOL transmission electron microscope. Microscopy was performed in the Microscopy and Histology Core Facility at the University of Aberdeen (United Kingdom).
# C. albicans = test: Time-kill assay in culture media; type: cell-based, Candida albicans; settings: C. albicans (n = 2), inoculum 1 × 10^6 to 5 × 10^6 cells/ml, RPMI 1640, 30°C
# Procedure: The tested antifungals were prepared at twice the required concentration. Then, 1 ml of the inoculum was added to 1 ml of the antifungal solution and incubated at 30°C. Every hour over the course of 8 h, 20 μl of the culture was removed and 10-fold serial dilutions were prepared (from 1 × 10^−1 to 1 × 10^−7). Then, 50 μl of each dilution was plated on SAB agar (Sigma) in triplicate. […] The colonies were counted, and the percentage killed was determined based on the reduction in the number of CFU/ml in the treated samples compared with the vehicle-treated, untreated controls.
compound,measurement,setting,value
N=C(N)NCCC[C@H](NC(=O)[C@H](CCCNC(=N)N)NC(=O)[C@H](CCCNC(=N)N)NC(=O)[C@H](CCCNC(=N)N)NC(=O)[C@H](CCCNC(=N)N)NC(=O)[C@H](CCCNC(=N)N)NC(=O)[C@H](CCCNC(=N)N)NC(=O)[C@H](CCCNC(=N)N)NC(=O)[C@@H](N)CCCNC(=N)N)C(=O)O,MIC,C. albicans NCTC 3179,"2,048 μM"
N=C(N)NCCC[C@H](NC(=O)[C@H](CCCNC(=N)N)NC(=O)[C@H](CCCNC(=N)N)NC(=O)[C@H](CCCNC(=N)N)NC(=O)[C@H](CCCNC(=N)N)NC(=O)[C@H](CCCNC(=N)N)NC(=O)[C@H](CCCNC(=N)N)NC(=O)[C@H](CCCNC(=N)N)NC(=O)[C@H](CCCNC(=N)N)NC(=O)[C@H](CCCNC(=N)N)NC(=O)[C@@H](N)CCCNC(=N)N)C(=O)O,MIC,C. albicans NCTC 3179,8 µM
C[C@@H]1[C@H](O)[C@@H](C)/C=C/C=C/C=C/C=C/C=C/C=C/C=C/[C@H](O[C@@H]2O[C@H](C)[C@@H](O)[C@H](N)[C@@H]2O)C[C@@H]2O[C@](O)(C[C@@H](O)C[C@@H](O)[C@H](O)CC[C@@H](O)C[C@@H](O)CC(=O)O[C@H]1C)C[C@H](O)[C@H]2C(=O)O [Amphotericin B],Fold change in antifungal MIC at passage 30,C. albicans SC5314,4
same,Time of kill (time taken to kill 2 logs),A. fumigatus conidia; final concn 2–8 mg/liter = 4–16× MIC,48 h
same,Fold change in antifungal MIC at passage 30,C. auris DSMZ1092,4
same,Fold change in antifungal MIC at passage 30,C. glabrata AM2007/0125,1
same,Fold change in antifungal MIC at passage 30,[1],4
same,Time of kill (time taken to kill 3 logs),C. auris; final concn 32 mg/liter = 16× MIC (amphotericin B),4 h
CC[C@H](C)C[C@H](C)CCCCCCCCC(=O)N[C@H]1C[C@@H](O)[C@@H](NCCN)NC(=O)[C@@H]2[C@@H](O)CCN2C(=O)[C@H]([C@H](O)CCN)NC(=O)[C@H]([C@H](O)[C@@H](O)c2ccc(O)cc2)NC(=O)[C@@H]2C[C@@H](O)CN2C(=O)[C@H]([C@@H](C)O)NC1=O [Caspofungin],Fold change in antifungal MIC at passage 30,C. albicans SC5314,4
same,Time of kill (time taken to kill 2 logs),A. fumigatus conidia; final concn 2–32 mg/liter = 1–16× MIC,48 h
same,Fold change in antifungal MIC at passage 30,C. auris DSMZ1092,1
same,"MIC (1× MIC, final concentration used for TEM)",C. albicans AM2003-0182 [2],0.5 µg/mL
same,Fold change in antifungal MIC at passage 30,C. glabrata AM2007/0125,1
same,Cell destruction (lysis) seen by TEM,C. albicans AM2003-0182 [3],not observed
same,Fold change in antifungal MIC at passage 30,[1],8
same,Time of kill (time taken to kill 3 logs),C. albicans; final concn 1 mg/liter = 4× MIC,4 h
same,Time of kill (time taken to kill 3 logs),C. auris; final concn 16 mg/liter = 16× MIC,6–24 h
OC(Cn1cncn1)(Cn1cncn1)c1ccc(F)cc1F [Fluconazole],Time of kill (time taken to kill 3 logs),C. albicans; final concn 32 mg/liter = 32× MIC,6 h
CC[C@@H]([C@H](C)O)n1ncn(-c2ccc(N3CCN(c4ccc(OC[C@@H]5CO[C@@](Cn6cncn6)(c6ccc(F)cc6F)C5)cc4)CC3)cc2)c1=O [Posaconazole],Time of kill (time taken to kill 2 logs),A. fumigatus conidia; final concn 4 mg/liter = 16× MIC,24 h
N=C(N)NCCC[C@H](NC(=O)[C@H](CCCNC(=N)N)NC(=O)[C@H](CCCNC(=N)N)NC(=O)[C@H](CCCNC(=N)N)NC(=O)[C@H](CCCNC(=N)N)NC(=O)[C@H](CCCNC(=N)N)NC(=O)[C@@H](N)CCCNC(=N)N)C(=O)O [RRRRRRR],MIC,C. albicans NCTC 3179,">2,048 μM"
N=C(N)NCCC[C@H](NC(=O)[C@H](CCCNC(=N)N)NC(=O)[C@H](CCCNC(=N)N)NC(=O)[C@H](CCCNC(=N)N)NC(=O)[C@@H](N)CCCNC(=N)N)C(=O)O [RRRRR] (H-RRRRR-OH),MIC,C. albicans NCTC 3179,">2,048 μM"
N=C(N)NCCC[C@H](NC(=O)[C@H](CCCNC(=N)N)NC(=O)[C@@H](N)CCCNC(=N)N)C(=O)O [RRR] (H-Arg-Arg-Arg-OH),MIC,C. albicans NCTC 3179,">2,048 μM"
C[C@@H](c1ncncc1F)[C@](O)(Cn1cncn1)c1ccc(F)cc1F [Voriconazole],Time of kill (time taken to kill 2 logs),A. fumigatus conidia; final concn 2–8 mg/liter = 16× MIC,48 h
"human β-defensin 2 (GIGDPVTCLKSGAICHPVFCPRRYKQIGTCGLPGTKCCKKP; UniProt O15263 24-64, looked up) [endogenous human host defense peptide used as comparator in TEM]","MIC (1× MIC, final concentration used for TEM)",C. albicans AM2003-0182 [2],25 µg/mL
same,Cell destruction (lysis) seen by TEM,C. albicans AM2003-0182 [3],not observed

# — article PMC8284473, “Preliminary Characterization of NP339, a Novel Polyarginine Peptide with Broad Antifungal Activity” (Antimicrobial Agents and Chemotherapy, 2021)
